Assay results from US7732478B2, “Methods for facilitating metabolic control” (The Trustees of Columbia University in The City of New York, priority 2005, dated 2010).

Legend:
[1] = test system: IL-1β in GCF; assay: Level of IL-1β in gingival crevicular fluid (sandwich ELISA) after ketorolac oral rinse; assay type: in vivo, human; details: Ketorolac treatment, Example 11
Source text: The clinical evaluation was preceded by collection of GCF, as previously described (Lamster et al., A comparison of 4 methods of data presentation for lysosomal enzyme activity in gingival crevicular fluid. J. Clin. Periodontol., 15:347-52, 1988; Lamster et al., Correlation analysis for clinical and gingival crevicular fluid parameters at anatomically related gingival sites. J. Clin. Periodontol., 18:272-77, 1991), from the mesiolingual and mesiobuccal surfaces of the first molar tooth in each quadrant. Where the first molar was absent, the second molar was sampled. If both the first and second molar were missing, the second premolar was sampled. If there were no posterior teeth in a quadrant, no sample was taken from that quadrant.
Briefly, teeth were air-dried and isolated with cotton rolls, supragingival plaque was gently removed, and GCF was sampled with precut methylcellulose filter paper strips for 30 sec. Strips were measured for fluid volume with a calibrated Periotron 6000 (Interstate Drug Exchange, Amityville, N.Y.), then removed to separate microcentrifuge tubes containing 50 μl of phosphate-buffered saline (Tween 20). […] Following elution, each GCF sample was analyzed separately.
GCF samples were analyzed for IL-1β using a commercially-available enzyme-linked immunosorbant assay, Multikine Kit (Cistron Biotechnology, Pine Brook, N.J.). […]

[2] = test system: circulating TNF; assay: Circulating TNF level (blood TNF alpha immunoassay) after ketorolac oral rinse; assay type: in vivo, human; details: oral rinse containing 0.1% Ketorolac twice daily for 6 months; type 2 diabetes and chronic periodontitis subjects
Description: Subjects are selected and divided into different groups as described in Examples 1 and 2. An oral rinse containing 0.1% Ketorolac was administered twice daily for 6 months to reduce the level of IL-1β in GCF in the subjects (see, Cavanaugh et al., Coordinate production of PGE2 and IL-1 beta in the gingival crevicular fluid of adults with periodontitis: its relationship to alveolar bone loss and disruption by twice daily treatment with ketorolac tromethamine oral rinse. J. Periodontal Res. 33:75-82, 1998). GCF samples are collected following the procedures of example 3 and the level of IL-1β in GCF is determined as described in example 5. Circulating TNF level is determined by measuring blood TNF level using the TNF alpha immunoassay kit (Assay Designs Inc., Ann Arbor, Mich.) following the manufacturer's instructions.

[3] = test system: HbA1c; assay: HbA1c levels as indicator of metabolic control; assay type: in vivo, human; details: Ketorolac treatment, Example 11
Description: (§1) Glycated hemoglobin (HbA1c) levels were measured from freshly drawn anticoagulated whole blood using an automated affinity chromatography system (BioRad Micromat II, Hercules, Calif.). Serum glucose was determined by the glucose oxidase method (Roche Diagnostics, Basel, CH). […] The study is performed as described in example 8. HbA1c levels and serum glucose levels, which are used as indicators of metabolic control, are measured as described in example 6.

[4] = test system: serum glucose; assay: Serum glucose levels as indicator of metabolic control; assay type: in vivo, human; details: Ketorolac treatment, Example 11
Description: as §1

[5] = test system: IL-1β in GCF; details: used as an oral rinse; cited from earlier work
[6] = test system: circulating levels of TNF-α, and IL-6; details: infusion of glutathione; healthy and impaired glucose tolerance individuals; cited from earlier work

Row | Structure (SMILES) | levels of IL-1β in GCF [1] | level of serum TNF [2] | HbA1c levels [3] | serum glucose levels [4] | GCF IL-1β in the oral cavity [5] | circulating cytokines following a glucose bolus administration [6]
1 | O=C(c1ccccc1)c1ccc2n1CCC2C(=O)O (stereo not drawn) [Ketorolac] | reducing the levels of IL-1β in GCF | significant reduction | decline of HbA1c levels | decline | reduce GCF IL-1β | –
2 | N[C@@H](CCC(=O)N[C@@H](CS)C(=O)NCC(=O)O)C(=O)O [glutathione] | – | – | – | – | – | no increase of cytokines
